Results from patent publication US20070270436A1, “NOVEL AMINO- AND IMINO-ALKYLPIPERAZINES” (Recordati Ireland Limited, priority 2006, published 2007).
Like-named read-outs stand apart in the source and are kept apart here.

Experiments:
[1] = molecular target: T1, human cloned 5-HT1A receptors (Homo sapiens, UniProt P08908); assay: [35S]GTPγS binding, functional activity; assay type: biochemical; set-up: key: neutral antagonists (NA); inverse agonists (IA); conditions: HeLa membranes with human 5-HT1A
T1 construct: expressed in transfected cells; host or cells: HeLa (human), stably transfected; membranes
T1 sequence (P08908 1-422): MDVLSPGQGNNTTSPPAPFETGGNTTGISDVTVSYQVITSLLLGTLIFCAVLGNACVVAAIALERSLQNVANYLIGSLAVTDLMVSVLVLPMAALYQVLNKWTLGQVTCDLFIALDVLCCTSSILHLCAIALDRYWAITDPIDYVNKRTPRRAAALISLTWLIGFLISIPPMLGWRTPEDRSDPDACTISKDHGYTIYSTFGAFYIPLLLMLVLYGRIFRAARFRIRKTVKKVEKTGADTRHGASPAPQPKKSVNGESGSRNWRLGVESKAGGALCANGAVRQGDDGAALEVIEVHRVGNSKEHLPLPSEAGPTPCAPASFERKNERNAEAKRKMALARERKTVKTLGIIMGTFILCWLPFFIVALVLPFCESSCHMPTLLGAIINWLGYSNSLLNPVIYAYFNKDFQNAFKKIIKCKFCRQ
Method: On the date of the experiment, cell membranes from HeLa cells transfected with human cloned 5-HT1A receptors were resuspended in buffer pH 7.4 containing 20 mM HEPES, 3 mM MgCl2 and 120 mM NaCl (Stanton, J. A.; Beer, M. S. Eur. J. Pharmacol. 320, 267-275, 1997). The membranes were incubated with 10 μM GDP and decreasing concentrations of test drugs (from 100 μM to 0.1 nM) or decreasing concentrations of 5-HT (from 100 μM to 0.1 nM, reference curve) for 20 min at 30° C. in a final volume of about 0.25 ml. [^35S]GTPγS (200-250 pM in 10 μl) was added to samples and incubated for a further 30 min at 30° C. Non-specific binding was determined in the presence of 10 μM GTPγS. The incubation was stopped by addition of ice-cold HEPES buffer and rapid filtration on Unifilter GF/C filters, using a Filtermate cell harvester (Packard). The filters were washed four times with total 1.2 ml of same buffer. Radioactivity was counted by liquid scintillation spectrometry with efficiency >90% (TopCount Packard). Stimulation of [^35S]GTPγS binding induced by the compounds tested was expressed as % increase in binding above basal value, being the maximal stimulation observed with 5-HT taken as 100%. The concentration-response curve of the agonistic activity was analyzed by non linear fitting program (De Lean et al., Am. J. Physiol. 235, E97-E102, 1978).
A stimulation of [^35S]GTPγS binding represented the functional correlate of the binding of an agonist compound at the 5-HT1A receptors. Stimulation induced by the endogenous ligand 5-HT was considered the maximal stimulation attainable. Compounds stimulating [^35S]GTPγS binding at a lower level were considered as partial agonists. […] Compounds that reduced [^35S]GTPγS binding were considered as inverse agonists.

[2] = molecular target: T2, human 5HT1A-serotonergic receptor (Homo sapiens, UniProt P08908); assay: Radioligand binding to recombinant 5-HT1A receptor ([3H]8-OH-DPAT, HeLa cell membranes); conditions: 1 nM [3H]8-OH-DPAT; Ki from IC50 by the Cheng equation; read-out: Ki (nM), binding affinity for 5HT1A receptor
T2 construct: expressed in transfected cells; host or cells: HeLa (human), stably transfected; membranes
T2 sequence (P08908 1-422): T1 sequence (P08908 1-422)
Method: Genomic clone G-21 encoding the human 5HT1A-serotonergic receptor was stably transfected in a human cell line (HeLa). HeLa cells were grown as monolayers in Dulbecco's modified Eagle medium (DMEM), containing 10% fetal bovine serum and gentamycin (100 μg/ml) at 37° C. in a humidified atmosphere of 5% CO2 and air. The cells were detached from the growth flask at 95% confluence by a cell scraper and were lysed in cold 5 mM Tris and 5 mM EDTA buffer (pH 7.4). The homogenates were centrifuged at 40000×g×20 minutes and the pellets were resuspended in a small volume of cold 5 mM Tris and 5 mM EDTA buffer (pH 7.4) and immediately frozen and stored at −70° C. until use. On the day of experiment, the cell membranes were resuspended in incubation buffer: 50 mM Tris (pH 7.4), 2.5 mM MgCl2, 10 μM pargyline (Fargin et al., Nature 335, 358-360, 1988). The membranes were incubated in a final volume of 0.32 ml for 30 minutes at 30° C. with 1 nM [^3H]8-OH-DPAT, in the absence or presence of the test compounds. Non-specific binding was determined in the presence of 10 μM 5-HT. Incubation was stopped by addition of cold Tris buffer and rapid filtration through UniFilter GF/C plate.
The affinity of the tested compounds was evaluated as inhibition of specific binding of the radioligand to 5-HT1A receptor (IC50) by using the non-linear curve-fitting program Allfit (De Lean et al., Am. J. Physiol. 235, E97-E102 (1978)). The IC50 value was converted to an affinity constant (Ki) by the equation of Cheng et al., Biochem. Pharmacol. 22, 3099-3108 (1973).

5-HT1A receptors = molecular target: T3, 5-HT1A receptors (Rattus norvegicus, UniProt P19327); assay: Inhibition of serotonergic syndrome (forepaw treading) induced by 8-OH-DPAT in rats (post-synaptic antagonism); assay type: in vivo; conditions: rat, 10 mg/kg p.o.
T3 construct: from tissue; host or cells: living male Sprague-Dawley rats (whole animal, behavioural read-out)
T3 sequence (P19327 1-422): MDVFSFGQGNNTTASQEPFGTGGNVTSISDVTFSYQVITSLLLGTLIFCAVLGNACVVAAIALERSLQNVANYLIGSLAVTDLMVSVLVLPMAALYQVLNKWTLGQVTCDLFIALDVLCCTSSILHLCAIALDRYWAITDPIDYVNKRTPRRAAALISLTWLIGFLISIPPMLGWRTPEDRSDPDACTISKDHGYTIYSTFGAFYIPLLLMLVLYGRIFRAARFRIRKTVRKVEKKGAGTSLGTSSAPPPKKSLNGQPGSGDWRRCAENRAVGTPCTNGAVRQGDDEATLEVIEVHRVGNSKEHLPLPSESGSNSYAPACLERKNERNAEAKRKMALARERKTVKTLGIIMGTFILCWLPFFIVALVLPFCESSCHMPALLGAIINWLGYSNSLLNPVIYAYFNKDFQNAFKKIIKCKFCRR
Method: The inhibitory effect of 5-HT1A-receptor antagonists on stereotyped forepaw treading induced in rats by subcutaneous injection of 8-OH-DPAT was evaluated by the method of Tricklebank (Tricklebank et al., Eur. J. Pharmacol., 117: 15, 1985) with minor modifications as described below.
Male Sprague-Dawley rats [Crl: CD® (SD) IGS BR] weighing 150-175 g from Charles River Italia were used. The animals were housed with free access to food and water and maintained on a forced 12-hour-light/12-hour-dark cycle at 22-24° C. of temperature. On the day of the experiment, the rats were placed singly in clear plastic containers, 10-15 minutes before oral administration of the vehicle or compounds to be tested. For evaluation of antagonistic activity, the compounds were administered 1 and 4 hours before induction of stereotypy by 8-OH-DPAT (1 mg/kg subcutaneously). Observation sessions lasted 30 seconds and began 3 minutes after 8-OH-DPAT treatment and were repeated every 3 minutes over a period of 15 minutes.
The appearance of the symptoms induced by postsynaptic stimulation of 5-HT1A receptors was noted, and the intensity was scored using an intensity scale in which: 0=absent, 1=equivocal, 2=present and 3=intense. Behavioural scores for treated rats were accumulated throughout the observation time (5 observation periods) and expressed as mean values of 4 rats/dose. Change in mean values of treated animals in comparison with control (vehicle) group, expressed as per-cent inhibition, was used to quantify the antagonistic activity.
In order to quantitate the potency of the compound of Example 24 in inhibiting the stereotypy (forepaw treading) induced by 8-OH-DPAT, an ED50 value (dose inhibiting by 50% the forepaw treading) was evaluated by means of linear regression using the least square method.

[3] = 1 h before 8-OH-DPAT 1 mg/kg s.c., read-out: % Inhibition of forepaw treading, 1 h
[4] = 4 h before 8-OH-DPAT 1 mg/kg s.c., read-out: % Inhibition of forepaw treading, 4 h

Compound | Functional Activity [1] | Ki [2] [nM] | inhibition at 10 mg/kg (5-HT1A receptors; [3]) [%] | inhibition at 10 mg/kg (5-HT1A receptors; [4]) [%]
CC(=O)N(C)C(C1CCCCC1)C(CCN1CCN(c2cccc3c2OCCO3)CC1)c1ccccc1F (centres unmarked) [Example 41, N-[1-Cyclohexyl-4-[4-(2,3-dihydrobenzo[1,4]dioxin-5-yl)piperazin-1-yl]-2-(2-fluoro-phenyl)butyl]-N-methylacetamide] | IA | 0.9 |  | 
CON[C@H](C1CCCCC1)[C@@H](CCN1CCN(c2ccccc2OC)CC1)c1ccccc1F (racemic) [Example 4a, (RS,SR)-N-{1-Cyclohexyl-2-(2-fluorophenyl)-4-[4-(2-methoxyphenyl)piperazin-1-yl]butyl}-O-methylhydroxylamine] | IA | 0.68 |  | 
COc1ccccc1N1CCN(CC[C@@H](c2ccccc2F)[C@H](NC(C)=O)C2CCCCC2)CC1 (racemic) [Example 7, N-{(RS,SR)-1-Cyclohexyl-2-(2-fluorophenyl)-4-[4-(2-methoxyphenyl)-piperazin-1-yl]butyl}acetamide] | IA | 1.69 | 87 | 86
COc1ccccc1N1CCN(CC[C@@H](c2ccccc2F)[C@H](NC(=S)N(C)C)C2CCCCC2)CC1 (single isomer, unassigned) [Example 24A, 3-{(1R,2S) or (1S,2R)-1-Cyclohexyl-2-(2-fluorophenyl)-4-[4-(2-methoxyphenyl)piperazin-1-yl]butyl}-1,1-dimethylthiourea] | IA | 0.7 |  | 
COc1ccccc1N1CCN(CCC(c2ccccc2F)C(NCc2ccccc2)C2CCCCC2)CC1 (stereo not drawn) [Example 13, (RS,SR)- and (RS,RS)-N-Benzyl-{1-cyclohexyl-2-(2-fluorophenyl)-4-[4-(2-methoxyphenyl)piperazin-1-yl]butyl}amine] | IA | 0.3 |  | 
COc1ccccc1N1CCN(CC[C@@H](c2ccccc2F)[C@@H](C2CCCCC2)N(C(C)=O)C(C)=O)CC1 (racemic) [Example 8, N-Acetyl-N-{(RS,SR)-1-cyclohexyl-2-(2-fluorophenyl)-4-[4-(2-methoxyphenyl)piperazin-1-yl]butyl}acetamide] | IA | 0.68 |  | 
COC(=O)N[C@H](C1CCCCC1)[C@@H](CCN1CCN(c2ccccc2OC)CC1)c1ccccc1F (racemic) [Example 17, (RS,SR)-{1-Cyclohexyl-2-(2-fluorophenyl)-4-[4-(2-methoxyphenyl)-piperazin-1-yl]butyl}carbamic acid methyl ester] | IA | 0.68 | 75 | 92
COc1ccccc1N1CCN(CC[C@@H](c2ccccc2F)[C@@H](C2CCCCC2)N(C)C(=S)N(C)C)CC1 (racemic) [Example 53, 1-{(RS,SR)-1-Cyclohexyl-2-(2-fluorophenyl)-4-[4-(2-methoxyphenyl)piperazin-1-yl]butyl}-1,3,3-trimethylthiourea] | IA | 1.7 |  | 
